Assay results from the NIST ThermoML archive (doi:10.1021/je700287u).
Numbers after ± are expanded uncertainties.

Settings: Liquid

CN(CCO)CCO [N-methyldiethanolamine]
Settings | mass density [kg/m3]
313.09 K, 1007 kPa | 1025.3 ± 0.6
313.09 K, 1989 kPa | 1025.8 ± 0.6
313.09 K, 3027 kPa | 1026.4 ± 0.6
313.09 K, 4003 kPa | 1026.9 ± 0.6
313.09 K, 5004 kPa | 1027.3 ± 0.6
313.09 K, 6004 kPa | 1027.8 ± 0.6
313.09 K, 6996 kPa | 1028.3 ± 0.6
313.09 K, 8006 kPa | 1028.8 ± 0.6
313.09 K, 9066 kPa | 1029.4 ± 0.6
313.09 K, 10021 kPa | 1029.8 ± 0.6
313.09 K, 11008 kPa | 1030.3 ± 0.6
313.09 K, 11995 kPa | 1030.8 ± 0.6
313.09 K, 13024 kPa | 1031.3 ± 0.7
313.09 K, 13984 kPa | 1031.7 ± 0.7
313.09 K, 14994 kPa | 1032.2 ± 0.7
313.09 K, 15992 kPa | 1032.7 ± 0.7
313.09 K, 16977 kPa | 1033.1 ± 0.7
313.09 K, 17994 kPa | 1033.6 ± 0.7
313.09 K, 19000 kPa | 1034 ± 0.7
313.09 K, 19985 kPa | 1034.5 ± 0.7
323.01 K, 1003 kPa | 1017.6 ± 0.6
323.01 K, 2020 kPa | 1018.2 ± 0.6
323.01 K, 3006 kPa | 1018.7 ± 0.6
323.01 K, 4031 kPa | 1019.2 ± 0.6
323.01 K, 5002 kPa | 1019.7 ± 0.6
323.01 K, 6020 kPa | 1020.2 ± 0.6
323.01 K, 7003 kPa | 1020.7 ± 0.6
323.01 K, 8000 kPa | 1021.2 ± 0.6
323.01 K, 9006 kPa | 1021.7 ± 0.6
323.01 K, 9991 kPa | 1022.2 ± 0.6
323.01 K, 11005 kPa | 1022.7 ± 0.6
323.01 K, 12000 kPa | 1023.2 ± 0.6
323.01 K, 13010 kPa | 1023.7 ± 0.6
323.01 K, 14000 kPa | 1024.2 ± 0.6
323.01 K, 14987 kPa | 1024.7 ± 0.6
323.01 K, 15987 kPa | 1025.2 ± 0.6
323.01 K, 17012 kPa | 1025.6 ± 0.6
323.01 K, 17991 kPa | 1026.1 ± 0.7
323.01 K, 18995 kPa | 1026.6 ± 0.7
323.01 K, 20012 kPa | 1027.1 ± 0.7
332.95 K, 1045 kPa | 1009.9 ± 0.6
332.95 K, 2032 kPa | 1010.5 ± 0.6
332.95 K, 2995 kPa | 1011 ± 0.6
332.95 K, 3991 kPa | 1011.6 ± 0.6
332.95 K, 4983 kPa | 1012.1 ± 0.6
332.95 K, 6016 kPa | 1012.6 ± 0.6
332.95 K, 6998 kPa | 1013.2 ± 0.6
332.95 K, 8009 kPa | 1013.7 ± 0.6
332.95 K, 8993 kPa | 1014.2 ± 0.6
332.95 K, 9991 kPa | 1014.7 ± 0.6
332.95 K, 10985 kPa | 1015.3 ± 0.6
332.95 K, 12014 kPa | 1015.8 ± 0.6
332.95 K, 13079 kPa | 1016.3 ± 0.6
332.95 K, 13992 kPa | 1016.8 ± 0.6
332.95 K, 14999 kPa | 1017.3 ± 0.6
332.95 K, 15997 kPa | 1017.8 ± 0.6
332.95 K, 16989 kPa | 1018.3 ± 0.6
332.95 K, 17997 kPa | 1018.8 ± 0.6
332.95 K, 19011 kPa | 1019.3 ± 0.6
332.95 K, 19963 kPa | 1019.7 ± 0.6
342.78 K, 1004 kPa | 1002 ± 0.5
342.78 K, 1998 kPa | 1002.6 ± 0.5
342.78 K, 3050 kPa | 1003.2 ± 0.5
342.78 K, 4015 kPa | 1003.7 ± 0.5
342.78 K, 4998 kPa | 1004.3 ± 0.5
342.78 K, 6020 kPa | 1004.9 ± 0.5
342.78 K, 7011 kPa | 1005.4 ± 0.6
342.78 K, 8034 kPa | 1006 ± 0.6
342.78 K, 9001 kPa | 1006.5 ± 0.6
342.78 K, 10000 kPa | 1007.1 ± 0.6
342.78 K, 11000 kPa | 1007.6 ± 0.6
342.78 K, 12012 kPa | 1008.2 ± 0.6
342.78 K, 12947 kPa | 1008.7 ± 0.6
342.78 K, 13991 kPa | 1009.2 ± 0.6
342.78 K, 15001 kPa | 1009.8 ± 0.6
342.78 K, 15987 kPa | 1010.3 ± 0.6
342.78 K, 16998 kPa | 1010.8 ± 0.6
342.78 K, 18005 kPa | 1011.3 ± 0.6
342.78 K, 18981 kPa | 1011.9 ± 0.6
342.78 K, 19980 kPa | 1012.4 ± 0.6
352.68 K, 1013 kPa | 994.4 ± 0.5
352.68 K, 2013 kPa | 995 ± 0.5
352.68 K, 3004 kPa | 995.6 ± 0.5
352.68 K, 3999 kPa | 996.1 ± 0.5
352.68 K, 5003 kPa | 996.8 ± 0.5
352.68 K, 6019 kPa | 997.3 ± 0.5
352.68 K, 7005 kPa | 997.8 ± 0.5
352.68 K, 8001 kPa | 998.4 ± 0.5
352.68 K, 8984 kPa | 999 ± 0.5
352.68 K, 9981 kPa | 999.5 ± 0.5
352.68 K, 11029 kPa | 1000.2 ± 0.5
352.68 K, 11980 kPa | 1000.7 ± 0.5
352.68 K, 13051 kPa | 1001.3 ± 0.5
352.68 K, 14000 kPa | 1001.8 ± 0.5
352.68 K, 14988 kPa | 1002.4 ± 0.5
352.68 K, 16018 kPa | 1002.9 ± 0.5
352.68 K, 16978 kPa | 1003.4 ± 0.6
352.68 K, 17977 kPa | 1004 ± 0.6
352.68 K, 19003 kPa | 1004.5 ± 0.6
352.68 K, 19990 kPa | 1005.1 ± 0.6
362.52 K, 1005 kPa | 986.7 ± 0.6
362.52 K, 2045 kPa | 987.3 ± 0.6
362.52 K, 2982 kPa | 987.8 ± 0.6
362.52 K, 4026 kPa | 988.4 ± 0.6
362.52 K, 5007 kPa | 988.9 ± 0.6
362.52 K, 6014 kPa | 989.5 ± 0.6
362.52 K, 7015 kPa | 990.2 ± 0.6
362.52 K, 7998 kPa | 990.8 ± 0.6
362.52 K, 9003 kPa | 991.3 ± 0.6
362.52 K, 9986 kPa | 991.9 ± 0.6
362.52 K, 10996 kPa | 992.5 ± 0.6
362.52 K, 12008 kPa | 993.1 ± 0.6
362.52 K, 13004 kPa | 993.7 ± 0.6
362.52 K, 13985 kPa | 994.2 ± 0.6
362.52 K, 15010 kPa | 994.8 ± 0.6
362.52 K, 15983 kPa | 995.4 ± 0.6
362.52 K, 17007 kPa | 995.7 ± 0.6
362.52 K, 17985 kPa | 996.3 ± 0.6
362.52 K, 18994 kPa | 996.9 ± 0.5
362.52 K, 19994 kPa | 997.4 ± 0.5
